Test results: patent publication US20110312934A1, “2-ALKYL-6-CYCLOAMINO-3-(PYRIDIN-4-YL)IMIDAZO[1,2-B]-PYRIDAZINE DERIVATIVES, PREPARATION THEREOF, AND THERAPEUTIC APPLICATION THEREOF” (SANOFI-AVENTIS, priority 2008, published 2011)

Legend:
[1] = target: T1, casein kinase 1 epsilon (CK1 epsilon) (Homo sapiens, UniProt P49674); assay: Filter-plate assay of ATP-33P, inhibition of phosphorylation of casein by CK1 epsilon; format: biochemical; settings: ATP-33P filtration, cold ATP 10 μM final, 2 hours at ambient temperature, read-out: CK1 epsilon Cl50
T1 construct: Invitrogen Corporation (alternative)
T1 sequence (P49674 whole entry): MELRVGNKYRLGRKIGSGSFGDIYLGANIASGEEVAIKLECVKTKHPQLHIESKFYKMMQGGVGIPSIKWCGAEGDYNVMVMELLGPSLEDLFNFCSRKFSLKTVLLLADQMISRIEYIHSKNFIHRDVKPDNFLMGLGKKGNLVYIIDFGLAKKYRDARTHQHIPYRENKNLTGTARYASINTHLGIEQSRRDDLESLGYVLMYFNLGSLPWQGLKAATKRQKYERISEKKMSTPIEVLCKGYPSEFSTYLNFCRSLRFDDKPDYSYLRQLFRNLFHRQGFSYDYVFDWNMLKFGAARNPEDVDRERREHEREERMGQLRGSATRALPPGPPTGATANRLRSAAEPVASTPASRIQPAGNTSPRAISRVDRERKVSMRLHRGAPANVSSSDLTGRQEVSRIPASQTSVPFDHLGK
Method: The capacity of the compounds of the invention to inhibit the phosphorylation of casein by casein kinase 1 epsilon and delta may be evaluated according to the procedure described in US 2005/0131012.
Filter-Plate Assay of ATP-^33P for the Screening of CK1 Epsilon Inhibitors:
The effect of the compounds on inhibition of the phosphorylation of casein by the enzyme casein kinase 1 epsilon (CK1 epsilon) is measured, using a casein assay with filtration of ATP-^33P in vitro.
Casein kinase 1 epsilon (0.58 mg/ml) is obtained via fermentation and purification processes performed according to methods that are well known to those skilled in the art, or may also be obtained from Invitrogen Corporation™ (human CK1 epsilon).
The compounds are tested at five different concentrations so as to generate IC50 values, i.e. the concentration at which a compound is capable of inhibiting the enzymatic activity by 50%, or alternatively the percentage of inhibition at a concentration of 10 micromolar.
“U”-bottomed Falcon plates are prepared by placing 5 μl of solutions of the compounds according to the invention at concentrations of 10, 1, 0.1, 0.01 or 0.001 μM in different wells. The solutions of the compounds according to the invention at these various concentrations are prepared by diluting in a test buffer (50 mM Tris, pH 7.5, […], 2 mM DTT and 1 mM EGTA) a stock solution in DMSO at a concentration of 10 mM. Next, 5 μl of dephosphorylated casein are added to a final concentration of 0.2 μg/μl, 20 μl of CK1 epsilon to a final concentration of 3 ng/μl, and 20 μl of ATP-^33P to a final concentration of 0.02 μCi/μl mixed with cold ATP (10 μM final—approximately 2×10^6 CPM per well). The final total test volume per well is equal to 50 μl.
The “U”-bottomed Falcon® test plate mentioned above is vortexed, and then incubated at ambient temperature for 2 hours. After 2 hours, the reaction is stopped by adding an ice-cold solution of 65 μl of ATP (2 mM) prepared in test buffer.
100 μl of the reaction mixture are then transferred from the “U”-bottomed Falcon® plate into Millipore® MAPH filter plates, preimpregnated with 25 μl of ice-cold 100% TCA. […]
The plates are left to dry overnight at ambient temperature. […] The radiation emitted by each well is then measured for 2 minutes in a Packard® Topcount NXT scintillation counter, in which the values of CPM/well are measured.
The percentage inhibition of the capacity of the enzyme to phosphorylate the substrate (casein) is determined for each concentration of compound tested. These inhibition data expressed as percentages are used to calculate the IC50 value for each compound compared with the controls.
The kinetic studies determined the KM value for ATP as being 21 μM in this test system.

[2] = target: T2, human CK1 delta (Homo sapiens, UniProt P48730); assay: FRET Z'Lyte kinase assay, CK1 delta; format: biochemical; settings: peptide substrate SER/THR 11 2 μM, ATP 4 times the KM, read-out: CK1 delta Cl50
T2 construct: purchased Invitrogen Corporation PV3665
T2 sequence (P48730 whole entry): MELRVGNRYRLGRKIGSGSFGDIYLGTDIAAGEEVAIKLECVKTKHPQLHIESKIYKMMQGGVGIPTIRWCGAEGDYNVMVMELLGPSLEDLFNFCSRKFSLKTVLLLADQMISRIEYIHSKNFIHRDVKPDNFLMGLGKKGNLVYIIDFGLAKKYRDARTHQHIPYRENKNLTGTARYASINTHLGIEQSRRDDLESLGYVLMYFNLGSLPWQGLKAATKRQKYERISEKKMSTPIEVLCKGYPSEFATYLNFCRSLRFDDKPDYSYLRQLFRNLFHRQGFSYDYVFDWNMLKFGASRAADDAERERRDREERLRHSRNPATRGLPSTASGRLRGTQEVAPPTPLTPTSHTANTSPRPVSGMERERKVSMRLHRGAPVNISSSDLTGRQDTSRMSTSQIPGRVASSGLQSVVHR
Text: The capacity of the compounds of the invention to inhibit the phosphorylation of casein by casein kinase 1 epsilon and delta may be evaluated using a FRET (Fluorescence Resonance Energy Transfer) fluorescence test with the aid of the Z'Lyte™ kinase assay Kit (reference PV3670; Invitrogen Corporation™) according to the manufacturer's instructions.
The casein kinases 1 used are obtained from Invitrogen Corporation (human CK1 epsilon PV3500 and human CK1 delta PV3665).
A peptide substrate, labelled at both ends with a fluorophore donor group (coumarin) and a fluorophore acceptor group (fluorescein), constituting a FRET system is phosphorylated in the presence of ATP by casein kinase 1 epsilon or delta in the presence of increasing concentrations of compounds of the invention.
The mixture is treated with a site-specific protease that specifically cleaves the peptide substrate to form two fluorescent fragments having a large fluorescence emission ratio.
The fluorescence observed is thus related to the capacity of the products of the invention to inhibit the phosphorylation of the peptide substrate by casein kinase 1 epsilon or casein kinase 1 delta. […]
The emitted fluorescence is measured at wavelengths of 445 and 520 nm (excitation at 400 nm).

IC50 [1]: 57 nM
IC50 [2]: < 1 nM
Structure (SMILES): Cc1nc2ccc(N3CCNCC3)nn2c1-c1ccncc1 [Compound 1, 2-Methyl-6-piperazin-1-yl-3-pyridin-4-yl-imidazo[1,2-b]pyridazine]
